Laboratory results taken from patent publication US20250177329A1, “GPR120 AGONISTS FOR THE TREATMENT OF INFLAMMATORY BOWEL DISEASE” (Dompe' Farmaceutici SPA, priority 2022, published 2025).

Tested on: DSS-induced colitis
Experiment: Mouse model of Dextran Sodium Sulfate-induced colitis
Assay type: in vivo, female C57/B16 mice
Excerpt: A mouse model of colitis induced by administration of Dextran Sodium Sulfate (DSS) (Wirtz S. et al. Nature Protocols; Volume: 2, Issue: 3 Pages: 541-546; 2007) was used to study the therapeutic effect of oral administration of DFL23806 on colitis.
In details, 8- to 12-week-old female C57/B16 mice were subjected to 3 oral cycles of 2.5% Dextran Sodium Sulfate (DSS) in drinking water (molecular mass, 40 kDa; MP Biomedicals), each cycle characterized by 7 days of DSS administration followed by 7 days of filter-purified water.
From day 3 of DSS administration, the mice were divided in 4 experimental groups, each receiving the treatment specified below: • Group 1: DSS (n=8)
No treatment, used as negative control. • Group 2: DSS+Vehicle (n=8)
Treated with 20% v/v Dimethyl Sulfoxide (DMSO) and 80% v/v Phosphate Buffered Saline (PBS), 0.1 M, pH 8 (Vehicle), used as a negative control. • Group 3: DSS+DFL 90 mg/kg (n=8)
Treated with DFL23806 dissolved in Vehicle, at the dosage of 90 mg/kg once a day. • Group 4: DSS+5-ASA 60 mg/kg (n=8)
Treated with 5-aminosalicylic acid (5-ASA) in Vehicle, at the dosage of 60 mg/Kg once a day, used as reference positive control.
Vehicle, DFL23806 and 5-ASA were administered daily, in the morning, by oral gavage, using plastic sterile feeding tubes 20 ga×30 mm. All mice were sacrificed on day 39.
A DAI score was established based on a scale that considers different parameters characterizing experimental colitis induction and progression (R S Walmsley et al. Gut 1998; 43:29-32).
Body weight, presence of gross blood in the feces, and stool consistency were recorded every 2 days. In details, the DAI was determined at each time point by scoring changes in weight loss (0=none, 1=1%-5%, 2=5%-10%, 3=10%-20%, 4=>20%); stool consistency (0=normal, 2=loose, 4=diarrhea); and rectal bleeding (0=normal, 2=occult bleeding, 4=gross bleeding).
Mice were sacrificed at day 39, colon were collected and colon lengths measured for each mouse, as additional parameter of intestinal inflammation.
The day of sacrifice (day 39), mice were anesthetized with 2% isoflurane and subjected to endoscopy, to confirm the inflammatory grade. The experimental endoscopy setup, denoted “Coloview system”, consisted of a miniature endoscope (scope 1.9 mm outer diameter), a xenon light source, a triple chip camera, and an air pump (all from Karl Storz, Tuttlingen, Germany) to achieve regulated inflation of the mouse colon. The endoscopic procedure was viewed on a colour monitor and a modified murine endoscopic index score of colitis severity was assigned on the basis of colon translucency (0-3 points), granular features of the mucosa (0-3 points), morphology of the vascular pattern (0-4 points), and the presence of fibrin (0-4 points), as previously described by Dr. D'Alessio (D'Alessio, S. et al. J. Clin. Invest. 124, 3863-3878; 2014) leading to a cumulative score between 0 (no signs of inflammation) and […] (endoscopic signs of very severe inflammation).
Histological analysis has been performed by an expert pathologist, in a blinded fashion, to grade the intestinal inflammation. More in details, colons of colitic mice in the various experimental groups have been evaluated for histological analyses using […] paraffin-embedded sections, stained with hematoxylin (Dako) and eosin (Diapath). A blinded pathologist evaluated the degree of inflammatory cell infiltration and mucosal damage, using the RACHMILEWITZ score (Table 1) (Rachmilewitz, D. et al. Gastroenterology 122, 1428-1441; 2002).

[1] = DFL23806 90 mg/kg oral once a day, versus DSS and DSS+Vehicle groups, already at day 7
[2] = colon, day 39, DFL 90 mg/kg, 5-ASA 60 mg/kg, compared with DSS+Vehicle
[3] = day 39, DFL23806 90 mg/kg, 5-ASA 60 mg/kg oral once a day, compared to DSS and DSS+Vehicle

Cc1cc(F)cc(C)c1NS(=O)(=O)c1cccc(CCCCCCC(=O)O)c1 [DFL23806, 7-(3-(N-(4-fluoro-2,6-dimethylphenyl)sulfamoyl)phenyl)heptanoic acid]
DAI (Disease Activity Index) score [1]: significant effect versus the controls
percentage of body weight loss [1]: significant effect versus the controls
body weight loss / DAI compared with 5-ASA (DFL23806 90 mg/kg versus 5-ASA 60 mg/kg, at certain time points): even more effective than 5-ASA
histological score (Rachmilewitz) for extent of flogosis [2]: significantly reduced the histological score
histological score (Rachmilewitz) for extent of ulceration [2]: significantly reduced the histological score
histological score (Rachmilewitz) for flogosis [2]: significantly reduced the histological score
histological score (Rachmilewitz) for ulceration [2]: significantly reduced the histological score
composite endoscopic score [3]: significantly inhibit chronic experimental colitis
endoscopic score: colon thickness [3]: significantly inhibit chronic experimental colitis
endoscopic score: mucosal surface granularity [3]: significantly inhibit chronic experimental colitis
endoscopic score: vascular pattern [3]: significantly inhibit chronic experimental colitis
endoscopic score: visible fibrin [3]: significantly inhibit chronic experimental colitis
colon length (day 39, DFL23806 90 mg/kg, 5-ASA 60 mg/kg oral once a day, compared to DSS+vehicle): significant inhibitory effect
